# Data from US9657081B2, “Inhibiting peptides derived from triggering receptor expressed on myeloid cells-1 (TREM-1) TREM-like transcript 1 (TLT-1) for treatment of cardiovascular diseases” (INSERM (Institut National de la Sante et de la Recherche …, priority 2013, dated 2017).
# Experiments:
# Format in all cases: in vivo
# [1] = test system: TREM-1; experiment: Rat model of myocardial ischemia-reperfusion, cardiac function by conductance catheter; design: PRSW: unit not given beside the values; Emax / ESPVR: unit not given here; details: six weeks after ischemia-reperfusion; 3 mg/kg once a day for 5 days
# Description: Adult male Wistar rats were subjected to myocardial ischemia-reperfusion and were randomly grouped (n=10) to receive repeated TREM-1- and TLT-1-derived peptides (3 mg/kg in 0.2 mL NaCl 0.9% once a day for 5 days) or scrambled-LR12 (3 mg/kg in 0.2 mL NaCl 0.9% once a day for 5 days). Six weeks after myocardial injury, cardiac function was investigated under anaesthesia by using a conductance catheter. Emax, ESPVR, and PRSW were higher in animals treated with TREM-1- and TLT-1-derived peptides than in control rats. All p<0.02 [controls versus LR12]).
# Animals received same surgery than in permanent ischemia, but with reperfusion of ischemic area by release of the LAD ligation after 60 minutes of ischemia. The same protocol as described above was then applied.
# Rats were anaesthetized with isoflurane and a 2 F high-fidelity micro-manometer catheter (SPR-407, Millar Institute, Houston, Tex., USA) was inserted into the LV via the right carotid artery. The Millar catheter was connected to a Harvard Data Acquisition System interfaced with a PC with the AcqKnowledge III software (ACQ 3.2).
# To investigate the role of TREM-1- and TLT-1-derived peptides in a more relevant model of MI, we performed a transient coronary artery ligation (ischemia-reperfusion model: IR) in rats. After randomisation, animals were then imaged under anaesthesia (micro-TEP) and administered with TREM-1- and TLT-1-derived peptides (3 mg/kg daily for 5 days i.p.) or LR12-scrambled peptide. Imaging was then repeated at 6 weeks before we studied cardiac function by using a conductance catheter (Millar).
# [2] = test system: TREM-1; experiment: Rat model of myocardial permanent ischemia (myocardial infarction), physiologic parameters and micro-TEP imaging
# Description: Adult male Wistar rats (360-380 g) were used. All rats were anaesthetized with ketamine (100 mg/kg, intramuscularly) and mechanically ventilated. After a left thoracotomy, the left coronary artery was identified and ligated with a 6-0 prolene surgical suture. LAD occlusion was confirmed by a change in myocardial color from red to white in the ischemia area (Left ventricle). The chest was closed and the skin was sutured with 6-0 silk. The animals returned to their cage where they were supervised until their complete recovery. The postoperative mortality rate of all rats was 20%.
# After surgical LAD occlusion, importance of ischemic area was evaluated by micro-TEP imaging. Animals were then randomized to receive peptide (5 mg/kg) every 24 h for 5 days or placebo (vehicle).
# A further evaluation was performed at 6 weeks by micro-TEP imaging and conductance catheter (Millar) in order to study the treatment effect on myocardial remodeling and myocardial function.
# In all animals, approximately 70 MBq of ^18F-FDG (in a 0.3-0.5 ml volume) was injected intravenously and under a short anaesthesia (1.5-2.5% of isoflurane inhalation) 60 min prior to initiating PET recording. Recording was acquired in list mode under continuous anaesthesia by isoflurane, using a dedicated small animal PET system (Inveon, Siemens, Knoxville, Tenn., USA). The animals were positioned in the prone position and placed on a heating pad to maintain a body temperature within the normal range. The animals were connected to a standard ECG monitor by three electrodes placed on the inner surfaces of limb extremities. Recording times were 20 min for 18F emission and 6 min for 57Co transmission. The coincidence timing window was set to 3.4 ns and the energy window between 350 and 650 keV. Images were reconstructed in 16 cardiac intervals, providing a temporal resolution of 11-15 ms for common heart rate values. Under these conditions, the axial spatial resolution was less than 1.5 mm. In addition, on LV rat phantoms obtained by a stereolithography process, a precise determination of the actual cavity volumes was provided by FDG PET images above the level of 100 μl corresponding to the lower limit for the LV endsystolic volume in adult.
# We finally investigated whether the modulation of the inflammatory response conferred by TREM-1- and TLT-1-derived peptides was able to translate into cardiac function improvement after a severe MI. We performed a permanent coronary artery ligation in rats before randomisation and imaging as described above.
# [3] = target: T1, TREM-1 (Mus musculus, UniProt Q9JKE2); experiment: Atherosclerosis in ApoE-/- mouse on fat diet; details: apoE-/- mice, daily i.p. 100 μg/day, 4 weeks; vehicle 146736
# T1 construct: endogenous in cells; host or cells: living mice (C57BL, Balb/c, ApoE-/-), in vivo
# T1 sequence (Q9JKE2 21-230): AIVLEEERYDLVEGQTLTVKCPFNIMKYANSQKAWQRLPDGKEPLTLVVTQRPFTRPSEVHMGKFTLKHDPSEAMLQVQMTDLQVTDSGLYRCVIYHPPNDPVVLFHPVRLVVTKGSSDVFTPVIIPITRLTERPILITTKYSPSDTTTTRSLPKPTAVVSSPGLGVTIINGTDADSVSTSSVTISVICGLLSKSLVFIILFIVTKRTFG
# Description: 12-week old male ApoE−/− mice were put on a fat diet (lipids 15%, cholesterol 1.25%, no cholate) and were treated by daily intraperitoneal injection of peptides (100 μg/day) or PBS. After 4 weeks of fat diet, mice were sacrificed for analysis.
# Atherosclerotic plaques were stained using Red Oil and quantified in the aortic sinus. Using immunofluorescent staining and immunohistochemistry, we analyzed plaque composition. Finally, we explored the effects of peptide's treatment on monocyte recruitment in the atherosclerotic plaques using the pulse staining technique developed by Potteaux et al. Briefly, monocytes were labelled in vivo by retro-orbital i.v. injection of 1 μm Fluoresbrite green fluorescent plain microspheres diluted 1:4 in sterile PBS [Potteaux et al, 2011]. Fluorescent beads count in the lesions reflects monocyte recruitment.
sequence,measurement,setting,value
LQEEDAGEYGCM (listed as Homo sapiens) [TLT1-LR12],ESPVR,[1],2.2 ± 0.1
same,Emax,[1],4.8 ± 0.5
same,PRSW,[1],103 ± 5
same,Body weight,[2]; Baseline,313 ± 51 g
same,EDV,[2]; Baseline,417 ± 92 µL
same,EF,[2]; Baseline,48 ± 9%
same,ESV,[2]; Baseline,215 ± 62 µL
same,Heart rate,[2]; Baseline,400 ± 26 bpm
same,MI Areas,[2]; Baseline,22 ± 11 % of LV
same,MT Areas,[2]; Baseline,54 ± 30 mm^2
same,Systolic blood pressure,[2]; Baseline,136 ± 17 mmHg
same,Body weight,[2]; Six weeks,426 ± 49 g
same,"Body weight, difference with baseline",[2]; Six weeks,113 ± 51 g
same,EDV,[2]; Six weeks,615 ± 161 µL
same,"EDV, difference with baseline",[2]; Six weeks,198 ± 95 µL
same,EF,[2]; Six weeks,50 ± 8%
same,"EF, difference with baseline",[2]; Six weeks,2 ± 7%
same,ESV,[2]; Six weeks,313 ± 128 µL
same,"ESV, difference with baseline",[2]; Six weeks,99 ± 80 µL
same,Heart rate,[2]; Six weeks,393 ± 23 bpm
same,"Heart rate, difference with baseline",[2]; Six weeks,−8 ± 22 bpm
same,"MI Areas (% of LV), difference with baseline",[2]; Six weeks,−6.0 ± 8.1 % of LV
same,"MI Areas (mm^2), difference with baseline",[2]; Six weeks,−5 ± 23 mm^2
same,Systolic blood pressure,[2]; Six weeks,136 ± 17 mmHg
same,"Systolic blood pressure, difference with baseline",[2]; Six weeks,−12 ± 26 mmHg
same,atherosclerotic lesion size in the aortic sinus (Red Oil staining),[3],103318 μm^2
